Results published in US8969395B2, “Triterpenoid derivatives useful as antiproliferative agents” (Universidade de Coimbra, priority 2009, dated 2015).

Key:
Type in all cases: cell-based
Details in all cases: 72 h, mean ±SD
[1] = system: HeLa (human cervical adenocarcinoma); experiment: Cytotoxic activity, MTT assay, HeLa
Experimental: (§1) The cytotoxic of compounds of formulas (I) and (II) 14-50 was assessed towards human cancer (HepG2, HeLa and Jurkat) cell lines (Table 3 below). Compounds presented on Table 4 were also tested against a non-tumoral liver cell line (Chang liver). The cell viability of HeLa, HepG2 and Chang liver cells was determined by the MTT assay. Briefly, exponentially growing cells were plated in 96-well plates at a density of 1×10^3, 8×10^3 and 5×10^3 cells/well respectively and incubated for 24 h before treatment. The grown medium was replaced with one contained the tested compounds dissolved in DMSO (final DMSO concentration <0.1%) at different concentrations, in triplicate wells, and cells were incubated for 72 h. After incubation with the compounds, the medium was removed and MTT solution (0.5 mg/ml, 100 μl) was added to each well and the plates were incubated again for 1 h. DMSO (100 μl) was then added to dissolve the formazan crystals and the plates were immediately read at 550 nm on an ELISA plate reader (Tecan Sunrise MR20-301, TECAN, Austria). For the Jurkat cells, the cell viability was determined by the XTT assay. Briefly, exponentially growing cells were plated in 96-well plates at a density of 5.5×10^3 cells/well, treated with different concentrations of compounds in triplicate and incubated for 72 h. After incubation with the compounds the XTT labeling mixture (100 μl) were added to each of the wells and after a 4 h incubation period the plates were read at 450 nm on an ELISA plate reader. […] Known for its cytotoxic activity, betulinic acid 2 was used as a positive control in this experimentation.

Jurkat (human leukemia) = experiment: Cytotoxic activity, XTT assay, Jurkat
Experimental: as §1, with “experimentation. […] All the IC50 results represent an average of a minimum of three experiments and were expressed as means±standard deviation (SD).” for “experimentation.”

[2] = system: HepG2 (human hepatocellular carcinoma); experiment: Cytotoxic activity, MTT assay, HepG2
Experimental: as §1, with “experimentation. […] All the IC50 results represent an average of a minimum of three experiments and were expressed as means±standard deviation (SD).” for “experimentation.”

[3] = system: Chang liver (human normal liver cells); experiment: Cytotoxic activity against non-tumoral cell line, MTT assay
Experimental: as §1, with “experimentation. […] All the IC50 results represent an average of a minimum of three experiments and were expressed as means±standard deviation (SD).” for “experimentation.”

Structure (SMILES)	IC50 [1] [µM]	IC50 (Jurkat (human leukemia)) [µM]	IC50 [2] [µM]	IC50 [3] [µM]
C=C(C)[C@@H]1CC[C@]2(COC(=O)n3cncn3)CC[C@]3(C)[C@H](CC[C@@H]4[C@@]5(C)CC[C@H](O)C(C)(C)[C@@H]5CC[C@]43C)[C@@H]12 [Compound 16, 3β-hydroxy-lup-20(29)-en-28-yl-1H-triazole-1-carboxylate]	15.2 ± 2.1	–	–	–
C=C(C)[C@@H]1CC[C@]2(COC(=O)n3ccnc3C)CC[C@]3(C)[C@H](CC[C@@H]4[C@@]5(C)CC[C@H](OC(=O)n6ccnc6C)C(C)(C)[C@@H]5CC[C@]43C)[C@@H]12 [Compound 18, Lup-20(29)-en-3β,28-di-yl-(2′-methyl-1H-imidazole-1-carboxylate)]	> 30	> 30	> 30	–
C=C(C)C1CCC2(COC(=O)n3cncn3)CCC3(C)C(CCC4C5(C)CCC(OC(=O)n6cncn6)C(C)(C)C5CCC43C)C12 (stereo not drawn) [Compound 19, Lup-20(29)-en-3β,28-di-yl-(1H-triazole-1-carboxylate)]	> 30	–	–	–
C=C(C)[C@@H]1CC[C@]2(CO)CC[C@]3(C)[C@H](CC[C@@H]4[C@@]5(C)CC[C@H](OC(=O)n6cncn6)C(C)(C)[C@@H]5CC[C@]43C)[C@@H]12 [Compound 21, 28-hydroxy-lup-20(29)-en-3β-yl-1H-triazole-1-carboxylate]	11.3 ± 1.9	–	–	–
C=C(C)[C@@H]1CC[C@]2(COC(=O)n3ccnc3)CC[C@]3(C)[C@H](CC[C@@H]4[C@@]5(C)CC[C@H](OC(C)=O)C(C)(C)[C@@H]5CC[C@]43C)[C@@H]12 [Compound 22, 3β-acetoxy-lup-20(29)-en-28-yl-1H-imidazole-1-carboxylate]	> 30	> 30	> 30	–
C=C(C)[C@@H]1CC[C@]2(COC(=O)n3ccnc3C)CC[C@]3(C)[C@H](CC[C@@H]4[C@@]5(C)CC[C@H](OC(C)=O)C(C)(C)[C@@H]5CC[C@]43C)[C@@H]12 [Compound 23, 3β-acetoxy-lup-20(29)-en-28-yl-2′-methyl-1H-imidazole-1-carboxylate]	> 30	> 30	> 30	–
C=C(C)[C@@H]1CC[C@]2(COC(=O)n3cncn3)CC[C@]3(C)[C@H](CC[C@@H]4[C@@]5(C)CC[C@H](OC(C)=O)C(C)(C)[C@@H]5CC[C@]43C)[C@@H]12 [Compound 24, 3β-acetoxy-lup-20(29)-en-28-yl-1H-triazole-1-carboxylate]	23.2 ± 2.1	–	–	–
C=C(C)[C@@H]1CC[C@]2(COC(C)=O)CC[C@]3(C)[C@H](CC[C@@H]4[C@@]5(C)CC[C@H](OC(=O)n6ccnc6)C(C)(C)[C@@H]5CC[C@]43C)[C@@H]12 [Compound 25, 28-acetoxy-lup-20(29)-en-3β-yl-1H-imidazole-1-carboxylate]	> 30	> 30	> 30	–
C=C(C)[C@@H]1CC[C@]2(COC(C)=O)CC[C@]3(C)[C@H](CC[C@@H]4[C@@]5(C)CC[C@H](OC(=O)n6ccnc6C)C(C)(C)[C@@H]5CC[C@]43C)[C@@H]12 [Compound 26, 28-acetoxy-lup-20(29)-en-3β-yl-2′-methyl-1H-imidazole-1-carboxylate]	> 30	> 30	> 30	–
C=C(C)C1CCC2(COC(C)=O)CCC3(C)C(CCC4C5(C)CCC(OC(=O)n6cncn6)C(C)(C)C5CCC43C)C12 (stereo not drawn) [Compound 27, 28-acetoxy-lup-20(29)-en-3β-yl-1H-triazole-1-carboxylate]	> 30	–	–	–
C=C(C)C1CCC2(C(=O)n3cncn3)CCC3(C)C(CCC4C5(C)CCC(OC(=O)n6cncn6)C(C)(C)C5CCC43C)C12 (stereo not drawn) [Compound 32, 28-(1H-triazole-1-yl)-28-oxo-lup-20(29)-en-3β-yl-1H-triazole-1-carboxylate]	14.5 ± 3.2	–	–	–
C=C(C)[C@@H]1CC[C@]2(C(=O)OC)CC[C@]3(C)[C@H](CC[C@@H]4[C@@]5(C)CC[C@H](OC(=O)n6ccnc6)C(C)(C)[C@@H]5CC[C@]43C)[C@@H]12 [Compound 33, Methyl 3β-(1H-imidazole-1-carbonyloxy)-lup-20(29)-en-28-oate]	8.2 ± 0.5	9.9 ± 0.6	4.3 ± 0.1	73.9 ± 3.6
C=C(COC)[C@@H]1CC[C@]2(COC(=O)n3cncn3)CC[C@]3(C)[C@H](CC[C@@H]4[C@@]5(C)CC[C@H](O)C(C)(C)[C@@H]5CC[C@]43C)[C@@H]12 [Compound 37, 3β-hydroxy-30-methoxylup-20(29)-en-28-yl-1H-triazole-1-carboxylate]	13.8 ± 2.3	–	–	–
C=C(COC)[C@@H]1CC[C@]2(COC(=O)n3ccnc3C)CC[C@]3(C)[C@H](CC[C@@H]4[C@@]5(C)CC[C@H](OC(=O)n6ccnc6C)C(C)(C)[C@@H]5CC[C@]43C)[C@@H]12 [Compound 39, 30-methoxylup-20(29)-en-3β,28-di-yl-(2′-methyl-1H-imidazole-1-carboxylate)]	13.4 ± 0.6	> 30	28.2 ± 2.5	–
C=C(COC)C1CCC2(COC(=O)n3cncn3)CCC3(C)C(CCC4C5(C)CCC(OC(=O)n6cncn6)C(C)(C)C5CCC43C)C12 (stereo not drawn) [Compound 40, 30-methoxylup-20(29)-en-3β,28-di-yl-(1H-triazole-1-carboxylate)]	> 30	–	–	–
C=C(C)[C@@H]1CC[C@]2(C(=O)n3ccnc3)CC[C@]3(C)[C@H](CC[C@@H]4[C@@]5(C)C=C(O)C(=O)C(C)(C)[C@@H]5CC[C@]43C)[C@@H]12 [Compound 48, 2-hydroxy-28-(1H-imidazol-1-yl)-lup-1,20(29)-dien-3,28-dione]	4.6 ± 0.7	7 ± 1.6	6.5 ± 0.4	62.8 ± 10.3
C=C(C)[C@@H]1CC[C@]2(C(=O)n3ccnc3)CC[C@]3(C)[C@H](CC[C@@H]4[C@@]5(C)C=C(OC(=O)n6ccnc6)C(=O)C(C)(C)[C@@H]5CC[C@]43C)[C@@H]12 [Compound 49, 2-(1H-imidazole-1-carbonyloxy)-28-(1H-imidazol-1-yl)-lup-1,20(29)-dien-3,28-dione]	3.9 ± 0.3	8.1 ± 0.6	4 ± 0.3	71.6 ± 4.9
